Results on 99 compounds are retold here after PubChem BioAssay AID493013 (Southern Research Specialized Biocontainment Screening …, 2011).

The source made the active and inactive calls. No rule for the calls is given here.

Test system in one assay: not listed separately
Nature of the assay: mammalian cell cytotoxicity, dose response, cytotoxicity control, secondary assay, set 2 (AID 493013). Particulars: mammalian cell line viability, cytotoxicity counter-screen; at 100 µM (top of the series).
In general, viability refers to a read-out of living cells in per cent, often relative to untreated cells. As to `Cc1ccccc1OCC(=O)Nc1nnn(C)n1`, the viability was 87.8% (inactive). The same measure, in the same setting: the figure for `Cc1cc(C)c(OCC(=O)Nc2nc3ccccc3s2)c(Cl)c1` is 83.2% (inactive).

For `Cc1cc2ccccc2[nH]1`, the viability was 100% (inactive). Take `S=C(Nc1ccccc1)Nc1ccc(Cl)cn1`: the viability was 97.2% (inactive). On the same count and under the same terms, the figure for `O=C(COc1ccc2ccccc2c1)Nc1nc2ccccc2[nH]1` is 91.9% (inactive). On to `Oc1ccc2[nH]ccc2c1`, for which the viability was 101% (inactive). In the case of `CC(=O)c1c(C)n(-c2ccccc2)c2ccc(OC(C)C)cc12`, the viability was 79.6% (inactive). Same read-out and setting: the figure for `Cc1ccc(OCC(=O)Nc2cccc3c(NC(=O)COc4ccc(C)cc4C)cccc23)c(C)c1` is 96.3% (inactive); for `COc1ccc(C(=O)Nc2ccc3nc(N4CCCCC4)cc(C)c3c2)c(OC)c1` it is 92% (inactive); for `CCOc1ccc2nc(NC(=O)COc3ccccc3)sc2c1` it is 76.4% (inactive). On to `Cc1cc(C)c(OCC(=O)Nc2nc3ccc(C)cc3s2)c(C)c1`, for which the viability is 87.7% (inactive). For `O=C(Cc1csc(-c2ccccc2F)n1)Nc1nc2ccccc2[nH]1`, the viability was 88.2% (inactive). Consider `CCc1ccc2nc(/N=C(\N)NC(=O)c3ccccc3)nc(C)c2c1`, for which the viability is 81.6% (inactive). For `CC(=O)c1c(C)n(-c2cccc(Cl)c2)c2ccc(O)cc12`, the viability was 78.9% (inactive). For the compound `CCCOc1ccc2c(c1)c(C(C)=O)c(C)n2-c1ccccc1`, the viability is 97.1% (inactive). The same measure, in the same setting: for `CCOc1ccc2nc(NC(=O)COc3ccc(OC)cc3)sc2c1` the value was 102% (inactive); for `Cc1ccc(OC(C)C(=O)Nc2ncccn2)c(C)c1` (centres undefined), 86.1% (inactive). On the same count and under the same terms, the figure for `Cc1cc2cc(O)ccc2[nH]1` is 105% (inactive); for `CC(=O)c1c(C)n(-c2ccccc2)c2ccc(O)cc12` it is 80.4% (inactive).

As to `Cc1onc(-c2c(Cl)cccc2Cl)c1/C(N)=N/OC(=O)C1CC1`, the viability is 102% (inactive). On the same count and under the same terms, the figure for `CN(NC(=O)c1c(Cl)cccc1Cl)c1cccc(Cl)n1` is 79.9% (inactive).

As to `Cc1ccc(OCC(=O)Nc2nc3c(Cl)cccc3s2)cc1`, the viability is 97% (inactive). The same measure, in the same setting: for `COC(=O)c1ccc2nc(NC(=O)COc3ccccc3)sc2c1` the value was 88.8% (inactive); for `O=C(COC(=O)C1=COCCO1)Nc1ccc2c(c1)OCO2`, 89% (inactive). In the case of `O=C(Cc1ccccc1Cl)Nc1nc2ccccc2[nH]1`, the viability is 84.9% (inactive). On the same count and under the same terms, for `COc1ccc2c(c1)c(C(C)=O)c(C)n2-c1ccccc1` the value was 92.5% (inactive); for `O=C(COc1ccccc1Cl)Nc1nc2ccccc2s1`, 73.1% (inactive); for `CC(=O)c1c(C)n(-c2ccccc2C)c2ccc(O)cc12`, 82.3% (inactive). As to `Cc1cc2cc(Cl)ccc2[nH]1`, the viability is 84.1% (inactive).

Take `CCOc1ccc(NC(=O)COc2ccc(C)cc2C)cc1`: the viability is 78.7% (inactive).

Take `Cc1ccccc1OCC(=O)Nc1noc(-c2ccccc2)n1`: the viability was 96.4% (inactive). On the same count and under the same terms, the figure for `O=C(CC12CC3CC(CC(C3)C1)C2)NCc1ccc(F)cc1` is 86.5% (inactive).

For `Cc1ccc(OCC(=O)Nc2ccc(Cl)cc2)c(C)c1`, the viability was 93.6% (inactive).

As for `CCOc1ccc2c(c1)c(C(C)=O)c(C)n2Cc1ccco1`, the viability is 94.5% (inactive). As for `Cc1cccc(C)c1OCC(=O)Nc1nc2ccccc2s1`, the viability was 84.5% (inactive). Turning to `Cc1ccccc1OCC(=O)Nc1ncccn1`, the viability was 100% (inactive).

Regarding `N/C(=N\c1nc2ccccc2o1)NC(=O)c1ccccc1Br`, the viability is 84.6% (inactive).

Take `O=C(O)CCC(=O)Nc1nc2ccccc2s1`: the viability was 98.8% (inactive). For the compound `COc1ccc2nc(NC(=O)c3oc4ccccc4c3C)sc2c1`, the viability is 80.8% (inactive). For `COc1ccc2nc(NC(=O)COc3ccccc3)sc2c1`, the viability is 83.9% (inactive). As for `O=C(OC(C(=O)Nc1ccc(Cl)cc1C(F)(F)F)c1ccccc1)C1=COCCO1` (centres undefined), the viability was 72.7% (inactive). Still for that read-out and setting: for `COc1ccc2nc(NC(=O)COc3c(C)cc(C)cc3C)sc2c1` the value was 79.6% (inactive); for `CCOc1ccc2nc(NC(=O)COc3ccc(F)cc3)sc2c1`, 96.4% (inactive); for `CC(=O)Nc1ccc2nc(NC(=O)Cc3ccccc3)sc2c1`, 82.2% (inactive). On the same count and under the same terms, for `N/C(=N\c1nc2ccccc2o1)NC(=O)c1ccccc1F` the value was 96.4% (inactive); for `Cc1ccccc1OCC(=O)Nc1ncn[nH]1`, 80.5% (inactive). For the compound `O=C(CSc1n[nH]c(=O)n1C1CC1)c1ccc2c(c1)OCCO2`, the viability is 94.5% (inactive). Consider `COc1cccc(NC(=O)C2CC2)c1`, for which the viability is 102% (inactive). For the compound `CCOc1ccc2nc(NC(=O)Cc3ccc(OC)cc3)sc2c1`, the viability was 83.6% (inactive). `Cc1cc2cc(F)ccc2[nH]1`: the viability was 95% (inactive).

Consider `O=C(COC(=O)C1CC1)c1c[nH]c2ccccc12`, for which the viability is 95.5% (inactive). On to `COc1ccc2nc(NC(=O)COc3ccccc3C(C)C)sc2c1`, for which the viability is 93.8% (inactive). With `Cc1cc(C)c(OCC(=O)Nc2nc3ccccc3[nH]2)c(C)c1`, the viability is 85.7% (inactive). `Cc1ccc(OCC(=O)Nc2nc3ccc(F)cc3s2)cc1`: the viability is 84.2% (inactive).

With `Cc1ccc(OCC(=O)Nc2nnn(C)n2)c(C)c1`, the viability is 85.2% (inactive). With `Cc1cccnc1NC(=S)NC(=O)c1cncc(Br)c1`, the viability is 106% (inactive). On to `COc1cccc(NC(=S)Nc2cc(C)cc(C)n2)c1`, for which the viability is 89.5% (inactive). As to `COc1ccc2nc(NC(=O)COc3ccc(Cl)cc3)sc2c1`, the viability is 92.1% (inactive). The same measure, in the same setting: for `c1ccc(OCc2nnc(-c3ccccc3)o2)cc1` the value was 72.5% (inactive).

For another assay, the system named is mammalian cell line viability, cytotoxicity counter-screen. The description is as above.
Conditions: not given
The term CC50 denotes the concentration giving 50% cytotoxicity. For the compound `CCOc1ccc2nc(NC(=O)C(C)Oc3ccccc3F)sc2c1` (centres undefined), the CC50 is 67.7 µM.

On to `Cc1ccccc1C(=O)Nc1nc2ccccc2[nH]1`, for which the CC50 is 71.4 µM. `Cc1c(OCc2ccc(C(=O)O)cc2)ccc2c(-c3ccccc3)cc(=O)oc12`: the CC50 is 51.8 µM. Take `COc1ccc(Cl)cc1C(=O)Nc1nc2ccccc2[nH]1`: the CC50 is 25.4 µM.

`CC(C)Cn1c2c(c(O)c(C(=O)Nc3nccs3)c1=O)CCCC2`: the CC50 is 78 µM.

For `COC(=O)c1sc(-c2ccc(C(C)(C)C)cc2)cc1NC(=O)CCC(=O)O`, the cytotoxic concentration (CC50) is 64.7 µM.

Regarding `Cc1ccc(OCC(=O)Nc2ccc3c4c(cccc24)CC3)c(C)c1`, the CC50 was 27.2 µM.

For the compound `Cc1ccccc1OCC(=O)Nc1ccccc1-c1ccccc1`, the CC50 is 77 µM. Still for that read-out and setting: the figure for `Cc1ccc2oc(/N=C(\N)NC(=O)c3ccccc3)nc2c1` is 5.79 µM; for `O=C(CCS(=O)(=O)c1ccc(F)cc1)Nc1nnc(-c2cccs2)o1` it is 41.6 µM; for `O=C(Nc1ccccc1)Nc1csc2ccccc12` it is 31.9 µM. Same read-out and setting: the figure for `COc1ccccc1C(=O)N/C(N)=N/c1nc2ccccc2o1` is 16.6 µM; for `O=C(COc1ccc2c3c(c(=O)oc2c1)CCC3)Nc1nc2ccccc2[nH]1` it is 23.4 µM.

Regarding `N/C(=N\c1nc2ccccc2o1)NC(=O)c1ccccc1`, the CC50 was 7.4 µM. `O=C(Nc1nc2ccccc2[nH]1)c1ccc(Cl)c(Cl)c1`: the CC50 is 83.6 µM.

For the compound `O=C(Nc1nc2ccccc2[nH]1)c1cc2cc(Br)ccc2o1`, the CC50 was 11.5 µM. As to `CCOc1ccc2c(c1)c(C(C)=O)c(C)n2-c1ccccc1Cl`, the CC50 is 47.7 µM. In the case of `Cc1ccc2sc(NC(=O)COc3ccccc3)nc2c1C`, the CC50 was 20.2 µM.

As for `N/C(=N\c1nc2ccccc2o1)NC(=O)c1ccc(F)cc1`, the 50% cytotoxic concentration (CC50) is 12.5 µM.

Take `O=C(COc1ccccc1)Nc1nc2ccccc2s1`: the 50% cytotoxic concentration (CC50) was 66.7 µM. The same measure, in the same setting: the figure for `CC(C)(Oc1ccc(Cl)cc1)C(=O)Nc1nc2ccccc2s1` is 72.3 µM; for `Cc1ccccc1OCC(=O)Nc1ccccc1N1CCCCC1` it is 51 µM. The same measure, in the same setting: the figure for `COc1ccc2nc(NC(=O)C(C)Oc3ccccc3)sc2c1` (centres undefined) is 87.7 µM. The same measure, in the same setting: for `CCOc1ccc2nc(NC(=O)C3(c4ccccc4)CCCC3)sc2c1` the value was 62.3 µM. In the case of `OCCCc1cn(-c2ccccc2)c2ccccc12`, the CC50 is 90 µM.

As to `CCCN1CC(O)=C(c2nc3ccccc3s2)C1=N`, the CC50 is 90.5 µM. With `COc1ccc2nc(NC(=O)COc3ccc(C)cc3)sc2c1`, the CC50 was 29.8 µM. For the compound `CC(Oc1ccc(Cl)cc1)C(=O)Nc1nc2ccccc2s1` (centres undefined), the CC50 is 46.4 µM.

In the case of `O=C(COc1ccc(Cl)cc1)Nc1nc2ccc(F)cc2s1`, the CC50 is 57.2 µM. As for `CCC(CC)c1nnc(NC(=O)c2ccc(N3CCCCC3)c([N+](=O)[O-])c2)s1`, the CC50 is 41.3 µM. `CCOc1ccc2nc(NC(=O)COc3ccc(Cl)c(C)c3)sc2c1`: the CC50 is 38.6 µM. On to `CC(=O)Nc1ccc2nc(NC(=O)COc3ccccc3)sc2c1`, for which the CC50 was 49.8 µM.

For the compound `CCOC(=O)c1cnc2cc(-c3ccc(C(C)(C)C)cc3)nn2c1N`, the CC50 was 74.6 µM. For the compound `COC(=O)c1c(C)n(-c2ccccc2)c2ccc(O)cc12`, the CC50 is 61.3 µM. Regarding `CCOc1ccc2c(c1)c(C(C)=O)c(C)n2-c1ccccc1`, the CC50 is 94.5 µM.

Turning to `N/C(=N\c1nc2cc(Cl)ccc2o1)NC(=O)c1ccccc1`, the CC50 was 14.5 µM. Regarding `O=C(COc1cccc2ccccc12)Nc1nc2ccccc2s1`, the half-maximal cytotoxic concentration (CC50) is 77.7 µM. For the compound `N/C(=N\c1nc2ccccc2o1)NC(=O)COc1ccc2ccccc2c1`, the CC50 was 37.3 µM.

For `COc1cccc(-c2ccc(-c3noc(-c4ccccc4F)n3)c(OC)n2)c1`, the CC50 was 46.7 µM. `c1ccc(Nc2ncnc3c2oc2ccccc23)cc1`: the CC50 is 76.9 µM.
